From patent US20260028354A1, “TETRAHYDRONAPHTHALENE DERIVATIVES AS ESTROGEN RECEPTOR DEGRADERS” (REGENT OF THE UNIVERSITY OF MICHIGAN, priority 2022, published 2026)

assay: Western blot analysis for "B" compounds; format: cell-based; settings: read-out: Traditional Western Degradation Potency (DC50)
Summary of the method: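 Compound-treated cells lysed in RIPA buffer with protease inhibitors; equal protein (BCA) run on 10% SDS-PAGE, transferred to PVDF and probed with target antibodies. Band intensities quantified by densitometry and normalized to GAPDH.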

| SMILES | DC50 |
| --- | --- |
| O=C1CCC(N2C(=O)c3cc4c(cc3C2=O)CN(C(=O)[C@H]2CC[C@@H](N3CC(Nc5ccc([C@@H]6c7ccc(O)cc7CC[C@@H]6c6ccccc6)cc5)C3)CC2)C4)C(=O)N1 (stereo partly drawn) [Compound B129, 2-(2,6-dioxopiperidin-3-yl)-6-((1R,4s)-4-(3-((4-((1R,2S)-6-hydroxy-2-phenyl-1,2,3,4-tetrahydronaphthalen-1-yl)phenyl)amino)azetidin-1-yl)cyclohexane-1-carbonyl)-6,7-dihydropyrrolo[3,4-f]isoindole-1,3(2H,5H)-dione] | > 100 nM |
| CN(c1ccc([C@@H]2c3ccc(O)cc3CC[C@@H]2c2ccccc2)cc1)C1CN([C@H]2CC[C@H](C(=O)N3Cc4cc5c(cc4C3)C(=O)N(C3CCC(=O)NC3=O)C5=O)CC2)C1 (stereo partly drawn) [Compound B130, 2-(2,6-dioxopiperidin-3-yl)-6-((1R,4r)-4-(3-((4-((1R,2S)-6-hydroxy-2-phenyl-1,2,3,4-tetrahydronaphthalen-1-yl)phenyl)(methyl)amino)azetidin-1-yl)cyclohexane-1-carbonyl)-6,7-dihydropyrrolo[3,4-f]isoindole-1,3(2H,5H)-dione] | > 100 nM |
| CN(c1ccc([C@@H]2c3ccc(O)cc3CC[C@@H]2c2ccccc2)cc1)C1CN([C@H]2CC[C@@H](C(=O)N3Cc4cc5c(cc4C3)C(=O)N(C3CCC(=O)NC3=O)C5=O)CC2)C1 (stereo partly drawn) [Compound B131, 2-(2,6-dioxopiperidin-3-yl)-6-((1S,4s)-4-(3-((4-((1R,2S)-6-hydroxy-2-phenyl-1,2,3,4-tetrahydronaphthalen-1-yl)phenyl)(methyl)amino)azetidin-1-yl)cyclohexane-1-carbonyl)-6,7-dihydropyrrolo[3,4-f]isoindole-1,3(2H,5H)-dione] | > 100 nM |
| CN(c1ccc([C@@H]2c3ccc(O)cc3CC[C@@H]2c2ccccc2)cc1)C1CN(C[C@H]2CC[C@H](C(=O)N3Cc4cc5c(cc4C3)C(=O)N(C3CCC(=O)NC3=O)C5=O)CC2)C1 (stereo partly drawn) [Compound B132, 2-(2,6-dioxopiperidin-3-yl)-6-((1R,4r)-4-((3-((4-((1R,2S)-6-hydroxy-2-phenyl-1,2,3,4-tetrahydronaphthalen-1-yl)phcnyl)(mcthyl)amino)azctidin-1-yl)mcthyl)cyclohexanc-1-carbonyl)-6,7-dihydropyrrolo[3,4-f]isoindole-1,3(2H,5H)-dione] | > 100 nM |
| O=C1CCC(N2Cc3cc4c(cc3C2=O)NC(=O)[C@@H]2CN(CC3CCN(c5ccc([C@@H]6c7ccc(O)cc7CC[C@@H]6c6ccccc6)cc5)CC3)CCN42)C(=O)N1 (stereo partly drawn) [Compound B134, (4aS)-9-(2,6-dioxopiperidin-3-yl)-3-((1-(4-((1R,2S)-6-hydroxy-2-phenyl-1,2,3,4-tetrahydronaphthalen-1-yl)phenyl)piperidin-4-yl)methyl)-2,3,4,4a,9,10-hexahydropyrazino[1,2-a]pyrrolo[3,4-g]quinoxaline-5,8(1H,6H)-dione] | > 100 nM |
| CN1C[C@@H]2CN(CC3CCN(c4ccc([C@@H]5c6ccc(O)cc6CC[C@@H]5c5ccccc5)cc4)CC3)CCN2c2cc3c(cc21)C(=O)N(C1CCC(=O)NC1=O)C3 (stereo partly drawn) [Compound B137, 3-((S)-3-((1-(4-((1R,2S)-6-hydroxy-2-phenyl-1,2,3,4-tetrahydronaphthalen-1-yl)phenyl)piperidin-4-yl)methyl)-6-methyl-8-oxo-2,3,4,4a,5,6,8,10-octahydropyrazino[1,2-a]pyrrolo[3,4-g]quinoxalin-9(1H)-yl)piperidine-2,6-dione] | 10 to 100 nM |
| O=C1CCC(N2C(=O)c3cc4c(cc3C2=O)CN(CC(=O)N2CCC3(CC2)CCN(c2ccc([C@@H]5c6ccc7[nH]ncc7c6CC[C@@H]5c5ccccc5)cc2)CC3)C4)C(=O)N1 (stereo partly drawn) [Compound B139, 2-(2,6-dioxopiperidin-3-yl)-6-(2-oxo-2-(9-(4-((6R,7S)-7-phenyl-6,7,8,9-tetrahydro-3H-benzo[e]indazol-6-yl)phenyl)-3,9-diazaspiro[5.5]undecan-3-yl)ethyl)-6,7-dihydropyrrolo[3,4-f]isoindole-1,3(2H,5H)-dione] | 10 to 100 nM |
| O=C1CCC(N2C(=O)c3cc4c(cc3C2=O)CN(CC(=O)N2CC3(CCN(c5ccc([C@H]6c7ccc(O)cc7CC[C@H]6c6ccccc6)cc5)CC3)C2)C4)C(=O)N1 (stereo partly drawn) [Compound B179, 2-(2,6-dioxopiperidin-3-yl)-6-(2-(7-(4-((1S,2R)-6-hydroxy-2-phenyl-1,2,3,4-tetrahydronaphthalen-1-yl)phenyl)-2,7-diazaspiro[3.5]nonan-2-yl)-2-oxoethyl)-6,7-dihydropyrrolo[3,4-f]isoindole-1,3(2H,5H)-dione] | > 100 nM |
| O=C1CCC(N2C(=O)c3cc4c(cc3C2=O)CN(CC(=O)N2CCC3(CC2)CCN(c2ccc([C@H]5c6ccc(O)cc6CC[C@H]5c5ccccc5)cc2)CC3)C4)C(=O)N1 (stereo partly drawn) [Compound B180, 2-(2,6-dioxopiperidin-3-yl)-6-(2-(9-(4-((1S,2R)-6-hydroxy-2-phenyl-1,2,3,4-tetrahydronaphthalen-1-yl)phenyl)-3,9-diazaspiro[5.5]undecan-3-yl)-2-oxoethyl)-6,7-dihydropyrrolo[3,4-f]isoindole-1,3(2H,5H)-dione] | > 100 nM |
| O=C1CCC(N2C(=O)c3cc4c(cc3C2=O)CN(C2CCC(CNC3CN(c5ccc([C@@H]6c7ccc(O)cc7CC[C@@H]6c6ccccc6)cc5)C3)CC2)C4)C(=O)N1 (stereo partly drawn) [Compound B181, 2-(2,6-dioxopiperidin-3-yl)-6-(4-(((1-(4-((1R,2S)-6-hydroxy-2-phenyl-1,2,3,4-tetrahydronaphthalen-1-yl)phenyl)azetidin-3-yl)amino)methyl)cyclohexyl)-6,7-dihydropyrrolo[3,4-f]isoindole-1,3(2H,5H)-dione] | > 100 nM |
| O=C1CCC(N2C(=O)c3cc4c(cc3C2=O)CN(C2CCC3(CC2)CCN(c2ccc([C@@H]5c6ccc(O)cc6CC[C@@H]5c5ccccc5)cc2)CC3)C4)C(=O)N1 (stereo partly drawn) [Compound B189, 2-(2,6-dioxopiperidin-3-yl)-6-(3-(4-((1R,2S)-6-hydroxy-2-phenyl-1,2,3,4-tetrahydronaphthalen-1-yl)phenyl)-3-azaspiro[5.5]undecan-9-yl)-6,7-dihydropyrrolo[3,4-f]isoindole-1,3(2H,5H)-dione] | > 100 nM |
| O=C1CCC(N2C(=O)c3cc4c(cc3C2=O)CN(CC(=O)N2CCC3(CC2)CCN(c2ccc([C@@H]5c6ccc(O)cc6CC[C@@H]5c5ccccc5)cc2)CC3)CC4)C(=O)N1 (stereo partly drawn) [Compound B194, 2-(2,6-dioxopiperidin-3-yl)-6-(2-(9-(4-((1R,2S)-6-hydroxy-2-phenyl-1,2,3,4-tetrahydronaphthalen-1-yl)phenyl)-3,9-diazaspiro[5.5]undecan-3-yl)-2-oxoethyl)-5,6,7,8-tetrahydro-1H-pyrrolo[3,4-g]isoquinoline-1,3(2H)-dione] | 10 to 100 nM |
| O=C1CCC(N2C(=O)c3cc4c(cc3C2=O)CN(CC(=O)N2CCC3(CC2)CCN(c2ccc([C@@H]5c6ccc(O)cc6CC[C@@H]5c5ccccc5)cc2)CC3)CC4)C(=O)N1 (stereo partly drawn) [Compound B195, 2-(2,6-dioxopiperidin-3-yl)-6-(2-(9-(4-((1R,2S)-6-hydroxy-2-phenyl-1,2,3,4-tetrahydronaphthalen-1-yl)phenyl)-3,9-diazaspiro[5.5]undecan-3-yl)-2-oxoethyl)-5,6,7,8-tetrahydro-1H-pyrrolo[3,4-g]isoquinoline-1,3(2H)-dione] | 10 to 100 nM |
| O=C1CCC(N2Cc3cc4c(cc3C2=O)CN(C(=O)C2CCN(CC3CCN(c5ccc([C@@H]6c7ccc(O)cc7CC[C@@H]6c6ccccc6)cc5)CC3)CC2)C4)C(=O)N1 (stereo partly drawn) [Compound B199, 3-(6-(1-((1-(4-((1R,2S)-6-hydroxy-2-phenyl-1,2,3,4-tetrahydronaphthalen-1-yl)phenyl)piperidin-4-yl)methyl)piperidine-4-carbonyl)-1-oxo-3,5,6,7-tetrahydropyrrolo[3,4-f]isoindol-2(1H)-yl)piperidine-2,6-dione] | > 100 nM |
| CN(C1CCC(C(=O)N2Cc3cc4c(cc3C2)C(=O)N(C2CCC(=O)NC2=O)C4=O)CC1)C1CCN(c2ccc([C@@H]3c4ccc(O)cc4CC[C@@H]3c3ccccc3)cc2)CC1 (stereo partly drawn) [Compound B200, 2-(2,6-dioxopiperidin-3-yl)-6-(4-((1-(4-((1R,2S)-6-hydroxy-2-phenyl-1,2,3,4-tetrahydronaphthalen-1-yl)phenyl)piperidin-4-yl)(methyl)amino)cyclohexane-1-carbonyl)-6,7-dihydropyrrolo[3,4-f]isoindole-1,3(2H,5H)-dione] | 10 to 100 nM |
| CN(C1CCC(C(=O)N2Cc3cc4c(cc3C2)C(=O)N(C2CCC(=O)NC2=O)C4)CC1)C1CCN(c2ccc([C@@H]3c4ccc(O)cc4CC[C@@H]3c3ccccc3)cc2)CC1 (stereo partly drawn) [Compound B201, 3-(6-(4-((1-(4-((1R,2S)-6-hydroxy-2-phenyl-1,2,3,4-tetrahydronaphthalen-1-yl)phenyl)piperidin-4-yl)(methyl)amino)cyclohexane-1-carbonyl)-1-oxo-3,5,6,7-tetrahydropyrrolo[3,4-f]isoindol-2(1H)-yl)piperidine-2,6-dione] | 10 to 100 nM |
| CN(C1CCC(CN2Cc3cc4c(cc3C2)C(=O)N(C2CCC(=O)NC2=O)C4)CC1)C1CCN(c2ccc([C@@H]3c4ccc(O)cc4CC[C@@H]3c3ccccc3)cc2)CC1 (stereo partly drawn) [Compound B202, 3-(6-((4-((1-(4-((1R,2S)-6-hydroxy-2-phenyl-1,2,3,4-tetrahydronaphthalen-1-yl)phenyl)piperidin-4-yl)(methyl)amino)cyclohexyl)methyl)-1-oxo-3,5,6,7-tetrahydropyrrolo[3,4-f]isoindol-2(1H)-yl)piperidine-2,6-dione] | > 100 nM |
| O=C1CCC(N2C(=O)c3cc4c(cc3C2=O)CN(CC2(F)CCN(C(=O)C3CN(c5ccc([C@@H]6c7ccc(O)cc7CC[C@@H]6c6ccccc6)cc5)C3)CC2)C4)C(=O)N1 (stereo partly drawn) [Compound B262, 2-(2,6-dioxopiperidin-3-yl)-6-((4-fluoro-1-(1-(4-((1R,2S)-6-hydroxy-2-phenyl-1,2,3,4-tetrahydronaphthalen-1-yl)phenyl)azetidine-3-carbonyl)piperidin-4-yl)methyl)-6,7-dihydropyrrolo[3,4-f]isoindole-1,3(2H,5H)-dione] | > 100 nM |
